In data set [1] the test system is Mycobacterium tuberculosis TB H3 Rv. In words: Activity against Mycobacterium tuberculosis TB H3 Rv in vitro, MIC (Table 1). The data set is classed as cell-based. Particulars: TBH3RV, read-out: MIC (minimum inhibitory concentration). The text has this: (a) minimum inhibitory concentration (1 mcg = 1.10^-5 g)
The test system is the same in data set [2]. In words: Activity against Mycobacterium tuberculosis TB H3 Rv, ED50 p.o. (Table 1). Particulars: TBH3RV, po. It is filed as in vivo.
Data set [3] in a line: Pharmacokinetics in mice (Table 1). The data set is classed as in vivo. As to conditions: mouse; for half-life: in vivo, read-out: t/2 (halflife of the elimination) (converted); for Cmax: plasma, read-out: Cmax (maximum concentration in the plasma).
Data set [4] in a line: Pharmacokinetics in rats (Table 1). It is filed as in vivo. Particulars: rat; for half-life: in vivo, read-out: t/2 (halflife of the elimination) (converted); for Cmax: plasma, read-out: Cmax (maximum concentration in the plasma). The text has this:
(c) Cmax = maximum concentration in the plasma (1 mcg = 1.10^-5

The test system of the next data set is M. kansasii K 367. In words: MIC against atypical Mycobacteria, photochromogenic (Table II). The data set is classed as cell-based. As to conditions: Mycobacterium kansasii, K367, read-out: MIC (minimum inhibitory concentration). The text has this:
(§1) MIC = minimum inhibitory concentration (1 mcg = 1.10^-5 g)

Another data set concerns M. aquae K 1165. Put plainly: MIC against atypical Mycobacteria, scotochromogenic (Table II). It is filed as cell-based. Particulars: read-out: MIC (minimum inhibitory concentration).
Excerpt: as §1

The subject of another data set is M. scrofulaceum K 1166. Described as above. It is filed as cell-based. Particulars: Mycobacterium scrofulaceum, K1166, read-out: MIC (minimum inhibitory concentration).
Excerpt: as §1

The subject of the next data set is M. xenopei K 716. Described as above. The data set is classed as cell-based. Particulars: Mycobacterium xenopi, K716, read-out: MIC (minimum inhibitory concentration).
Excerpt: as §1

The test system of another data set is M. avium K 536. In words: MIC against atypical Mycobacteria, non-photochromogenic (Table II). It is filed as cell-based. Particulars: Mycobacterium avium, K536, read-out: MIC (minimum inhibitory concentration).
Excerpt: as §1

A further data set relates to M. intracellular K 181. The description is as above. It is filed as cell-based. Particulars: read-out: MIC (minimum inhibitory concentration).
Excerpt: as §1

In a further data set the test system is M. intracellular K 546. Described as above. The data set is classed as cell-based. As to conditions: read-out: MIC (minimum inhibitory concentration).
Excerpt: as §1

For the next data set, the system named is M. intracellular K 550. The data set is described as above. The data set is classed as cell-based. As to conditions: read-out: MIC (minimum inhibitory concentration).
Excerpt: as §1

In another data set the test system is M. intracellular K 551. The description is as above. The data set is classed as cell-based. Particulars: read-out: MIC (minimum inhibitory concentration).
Excerpt: as §1

The next data set concerns M. intracellular K 653. The description is as above. The data set is classed as cell-based. Particulars: read-out: MIC (minimum inhibitory concentration).
Excerpt: as §1

For another data set, the system named is atypical Mycobacteria. In words: Antimicrobial activity in vitro against atypical Mycobacteria. The data set is classed as cell-based, Mycobacterium. Particulars: against a number of atypical Mycobacteria; vs rifampicin. The text has this:
This excellent activity is especially pronounced in group c, i.e. non-photochromogenic micro-organisms, which are among the most dangerous pathogens of AIDS infections.

A short description of data set [5]: Retention time in the organism / long-term activity. The data set is classed as in vivo. As to conditions: for activity in respect of pharmacokinetics: vs known 3-piperazinyl-rifamycins; for retention time in the organism: vs rifampicin or compounds 1 to 4 of U.S. Pat. No. 4,005,077.

In brackets after ≈: the same amount, converted by molar mass.

Usually ED50 stands for the dose that gives a 50% effect, or the effect in half of the subjects. Higher therefore signals a need for a large dose.

On to `COC1C=COC2(C)Oc3c(C)c(O)c4c(O)c(c(N5CCN(Cc6c(C)cc(C)cc6C)CC5)c(O)c4c3C2=O)NC(=O)C(C)=CC=CC(C)C(O)C(C)C(O)C(C)C(OC(C)=O)C1C` (stereo not drawn) [A, 3-[4-(2,4,6-trimethylbenzyl)-piperazin-1-yl]-rifamycin SV], for which the MIC in data set [1] was 0.003 µg/mL (≈ 0.00328 µM); in the data set on M. kansasii K 367, 0.015 µg/mL (≈ 0.0164 µM); in the data set on M. aquae K 1165, 0.03 µg/mL (≈ 0.0328 µM); with M. scrofulaceum K 1166 it was 0.03 µg/mL (≈ 0.0328 µM); in the data set on M. xenopei K 716, 1 µg/mL (≈ 1.09 µM); in the data set on M. avium K 536 it was 0.5 µg/mL (≈ 0.547 µM). The MIC in the data set on M. intracellular K 181 is 0.03 µg/mL (≈ 0.0328 µM); with M. intracellular K 546 it was 0.125 µg/mL (≈ 0.137 µM); with M. intracellular K 550, 0.25 µg/mL (≈ 0.273 µM); in the data set on M. intracellular K 551, 0.25 µg/mL (≈ 0.273 µM); in the data set with M. intracellular K 653 it was 0.125 µg/mL (≈ 0.137 µM). The same compound displayed an ED50 in data set [2] of 4 mg/kg. For the same compound, the half-life was 47.4 h in [3] and roughly 450 h in [4]. In addition, the Cmax came out at 2950 ng/mL in data set [3] and 1510 ng/mL in data set [4]. Also, the “antimicrobial activity in vitro compared with rifampicin” value in the data set with atypical Mycobacteria is listed as “several times greater than the antimicrobial activity exhibited by rifampicin”. In addition, in [5], the “activity in respect of pharmacokinetics” value is “superior activity in respect of pharmacokinetics”. For the same compound, in data set [5], the “retention time in the organism” value was “appreciably longer than that of rifampicin or of compounds 1 to 4”.
For `COC1C=COC2(C)Oc3c(C)c(O)c4c(O)c(c(N5CCN(Cc6cccc7ccccc67)CC5)c(O)c4c3C2=O)NC(=O)C(C)=CC=CC(C)C(O)C(C)C(O)C(C)C(OC(C)=O)C1C` (stereo not drawn) [B, 3-[4-(1-naphthylmethyl)-piperazin-1-yl]rifamycin SV], the MIC in [1] amounted to 0.0003 µg/mL (≈ 0.000325 µM); in the data set with M. kansasii K 367, 0.015 µg/mL (≈ 0.0163 µM); in the data set with M. aquae K 1165 it was 0.03 µg/mL (≈ 0.0325 µM); in the data set on M. scrofulaceum K 1166, 0.06 µg/mL (≈ 0.0651 µM); in the data set with M. xenopei K 716, 0.5 µg/mL (≈ 0.542 µM); in the data set with M. avium K 536, 1 µg/mL (≈ 1.08 µM). Besides, the MIC with M. intracellular K 181 worked out at 0.125 µg/mL (≈ 0.136 µM); with M. intracellular K 546 it was 1 µg/mL (≈ 1.08 µM); in the data set with M. intracellular K 550 it was 1 µg/mL (≈ 1.08 µM); with M. intracellular K 551, 1 µg/mL (≈ 1.08 µM); with M. intracellular K 653, 0.25 µg/mL (≈ 0.271 µM). This compound also displayed an ED50 in data set [2] of 3 mg/kg. In addition, the half-life was 48.5 h in [3] and 111 h in data set [4]. For the same compound, the results for the Cmax in data set [3] and in data set [4] were 1880 ng/mL and 1120 ng/mL, respectively. Besides, in the data set with atypical Mycobacteria, the “antimicrobial activity in vitro compared with rifampicin” value is reported as “several times greater than the antimicrobial activity exhibited by rifampicin”. For the same compound, in [5], the “activity in respect of pharmacokinetics” value is “superior activity in respect of pharmacokinetics”. In addition, the “retention time in the organism” value in data set [5] is “appreciably longer than that of rifampicin or of compounds 1 to 4”.
Turning to `COC1C=COC2(C)Oc3c(C)c(O)c4c(O)c(c(N5CCN(Cc6ccccc6C)CC5)c(O)c4c3C2=O)NC(=O)C(C)=CC=CC(C)C(O)C(C)C(O)C(C)C(OC(C)=O)C1C` (stereo not drawn) [Compound 1, 3-[4-(o-methylbenzyl)-piperazin-1-yl]-rifamycin SV], the MIC in data set [1] worked out at 0.001 µg/mL (≈ 0.00113 µM). In [2], the ED50 was 1.4 mg/kg. In data set [3], the half-life is 22.9 h and the Cmax worked out at 2690 ng/mL. Further, in data set [4], the half-life was 86 h and the Cmax is 1320 ng/mL.
For `COC1C=COC2(C)Oc3c(C)c(O)c4c(O)c(c(N5CCN(Cc6cccc(C)c6)CC5)c(O)c4c3C2=O)NC(=O)C(C)=CC=CC(C)C(O)C(C)C(O)C(C)C(OC(C)=O)C1C` (stereo not drawn) [Compound 2], the MIC in data set [1] came to 0.0003 µg/mL (≈ 0.000339 µM). It took a dose of 1.4 mg/kg to reach the 50% effect level in data set [2] (ED50). Also, in data set [3], the half-life was 11.9 h and the Cmax turned out to be 3390 ng/mL.
For `COC1C=COC2(C)Oc3c(C)c(O)c4c(O)c(c(N5CCN(Cc6ccc(C)cc6)CC5)c(O)c4c3C2=O)NC(=O)C(C)=CC=CC(C)C(O)C(C)C(O)C(C)C(OC(C)=O)C1C` (stereo not drawn) [Compound 3, 3-[4-(p-methylbenzyl)-piperazin-1-yl]-rifamycin SV], the MIC in [1] came out at 0.0001 µg/mL (≈ 0.000113 µM). The compound also displayed an ED50 in data set [2] of 1.2 mg/kg. In addition, in data set [3], the half-life is 11.5 h and the Cmax is 2280 ng/mL.
As to `COC1C=COC2(C)Oc3c(C)c(O)c4c(O)c(c(N5CCN(Cc6ccc(C(C)C)cc6)CC5)c(O)c4c3C2=O)NC(=O)C(C)=CC=CC(C)C(O)C(C)C(O)C(C)C(OC(C)=O)C1C` (stereo not drawn) [Compound 4, 3-[4-(p-isopropylbenzyl)-piperazin-1-yl]-rifamycin SV], in data set [1], the MIC amounted to 0.003 µg/mL (≈ 0.00328 µM). For the same compound, it took a dose of 1.5 mg/kg to reach the 50% effect level in [2] (ED50). In addition, in data set [3], the half-life was 20.4 h and the Cmax is 1810 ng/mL.
Turning to `COC1C=COC2(C)Oc3c(C)c(O)c4c(O)c(c(N5CCN(CC(C)C)CC5)c(O)c4c3C2=O)NC(=O)C(C)=CC=CC(C)C(O)C(C)C(O)C(C)C(OC(C)=O)C1C` (stereo not drawn) [Compound 5, 3-(4-isobutylpiperazin-1-yl)-rifamycin SV], the MIC in [1] is 0.0001 µg/mL (≈ 0.000119 µM). This compound also came in with an ED50 in [2] of 1 mg/kg. Besides, in data set [3], the half-life was 12 h and the Cmax stood at 1200 ng/mL.
For the compound `C=C(C)CN1CCN(c2c3c(O)c4c(O)c(C)c5c(c4c2O)C(=O)C(C)(OC=CC(OC)C(C)C(OC(C)=O)C(C)C(O)C(C)C(O)C(C)C=CC=C(C)C(=O)N3)O5)CC1` (stereo not drawn) [Compound 6], the MIC in [1] worked out at 0.0003 µg/mL (≈ 0.000359 µM). In data set [2], this compound had an ED50 of 1 mg/kg. In data set [3], the half-life was 21 h and the Cmax was found to be 1400 ng/mL.
On to `CO[C@H]1/C=C/O[C@@]2(C)Oc3c(C)c(O)c4c(O)c(c(/C=N/N5CCN(C)CC5)c(O)c4c3C2=O)NC(=O)/C(C)=C\C=C\[C@H](C)[C@H](O)[C@@H](C)[C@@H](O)[C@@H](C)[C@H](OC(C)=O)[C@@H]1C` [Rifampicin], for which the MIC was found to be 0.003 µg/mL (≈ 0.00365 µM) in data set [1]; 0.25 µg/mL (≈ 0.304 µM) in the data set on M. kansasii K 367; 0.25 µg/mL (≈ 0.304 µM) with M. aquae K 1165; 1 µg/mL (≈ 1.22 µM) in the data set with M. scrofulaceum K 1166; 1 µg/mL (≈ 1.22 µM) in the data set on M. xenopei K 716; 64 µg/mL (≈ 77.8 µM) in the data set with M. avium K 536. The MIC in the data set on M. intracellular K 181 worked out at 0.5 µg/mL (≈ 0.608 µM); in the data set with M. intracellular K 546, 16 µg/mL (≈ 19.4 µM); with M. intracellular K 550, 8 µg/mL (≈ 9.72 µM); with M. intracellular K 551, 1 µg/mL (≈ 1.22 µM); with M. intracellular K 653, 2 µg/mL (≈ 2.43 µM). This compound showed an ED50 in data set [2] of 5.9 mg/kg. Also, the results for the Cmax in data set [3] and in data set [4] were 2480 ng/mL and 1390 ng/mL, respectively.

For the origin of these results see patent US4918066A, “Substituted 4-benzylpiperazinyl compounds” (Ciba-Geigy Corporation, priority 1989, dated 1990).
